Measured values as given in PubChem BioAssay (NCI).
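The compound was tested at five concentrations on cells cultured in 96-well plates, with a 48-hour exposure period. At the GI50, growth is halved. The concentration for full growth arrest is given as TGI.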

Experiments:
Experiment in all cases: DTP human tumour cell line panel, 48 h
HS 578T breast = test system: HS 578T breast
SW-620 colon = test system: SW-620 colon
BT-549 breast = test system: BT-549 breast
KM12 colon = test system: KM12 colon
U251 CNS = test system: U251 CNS
PC-3 prostate = test system: PC-3 prostate
OVCAR-8 ovarian = test system: OVCAR-8 ovarian
SF-295 CNS = test system: SF-295 CNS
UACC-257 melanoma = test system: UACC-257 melanoma
RPMI-8226 leukemia = test system: RPMI-8226 leukemia
TK-10 renal = test system: TK-10 renal
A549 NSCLC = test system: A549 NSCLC
A498 renal = test system: A498 renal
HL-60(TB) leukemia = test system: HL-60(TB) leukemia
NCI/ADR-RES ovarian = test system: NCI/ADR-RES ovarian
NCI-H522 lung = test system: NCI-H522 lung
SNB-19 CNS = test system: SNB-19 CNS
786-0 renal = test system: 786-0 renal
M14 melanoma = test system: M14 melanoma
SK-MEL-2 melanoma = test system: SK-MEL-2 melanoma
MDA-MB-231 breast = test system: MDA-MB-231 breast
MCF7 breast = test system: MCF7 breast
MOLT-4 leukemia = test system: MOLT-4 leukemia
SF-268 CNS = test system: SF-268 CNS
UO-31 renal = test system: UO-31 renal
NCI-H23 lung = test system: NCI-H23 lung
IGROV1 ovarian = test system: IGROV1 ovarian
HT29 colon = test system: HT29 colon
SNB-75 CNS = test system: SNB-75 CNS
LOX IMVI melanoma = test system: LOX IMVI melanoma
HOP-92 NSCLC = test system: HOP-92 NSCLC
NCI-H226 lung = test system: NCI-H226 lung
DU-145 prostate = test system: DU-145 prostate
HCC-2998 colon = test system: HCC-2998 colon
SF-539 CNS = test system: SF-539 CNS
CAKI-1 renal = test system: CAKI-1 renal
T-47D breast = test system: T-47D breast
HCT-116 colon = test system: HCT-116 colon
UACC-62 melanoma = test system: UACC-62 melanoma
OVCAR-3 ovarian = test system: OVCAR-3 ovarian
OVCAR-4 ovarian = test system: OVCAR-4 ovarian
COLO 205 colon = test system: COLO 205 colon
MALME-3M melanoma = test system: MALME-3M melanoma
HOP-62 NSCLC = test system: HOP-62 NSCLC
ACHN renal = test system: ACHN renal
CCRF-CEM leukemia = test system: CCRF-CEM leukemia
NCI-H460 lung = test system: NCI-H460 lung
SK-MEL-5 melanoma = test system: SK-MEL-5 melanoma
EKVX NSCLC = test system: EKVX NSCLC
SK-MEL-28 melanoma = test system: SK-MEL-28 melanoma
SR leukemia = test system: SR leukemia
HCT-15 colon = test system: HCT-15 colon
K-562 leukemia = test system: K-562 leukemia
MDA-MB-435 = test system: MDA-MB-435
SN12C renal = test system: SN12C renal
OVCAR-5 ovarian = test system: OVCAR-5 ovarian
SK-OV-3 ovarian = test system: SK-OV-3 ovarian

With `O=C(CCCCCCNC(=O)C(O)(O)C(F)(F)F)Nc1ncc(-c2ccccc2)s1` as the compound, how does the GI50 (HS 578T breast) read?
The GI50 was 2.62 µM.

What about the TGI (HS 578T breast) of the same compound?
Its TGI is 18.4 µM.

What about the GI50 (SW-620 colon) of the same compound?
Its GI50 is 2.4 µM.

And the TGI (SW-620 colon)?
Its TGI is 9.91 µM.

And the GI50 (BT-549 breast)?
The GI50 was 2.47 µM.

And the TGI (BT-549 breast)?
The TGI was 16.6 µM.

What about the GI50 (KM12 colon) of the same compound?
The GI50 was 4.51 µM.

And the TGI (KM12 colon)?
The TGI was over 23.5 µM.

What about the GI50 (U251 CNS) of the same compound?
Its GI50 is 3.07 µM.

What about the TGI (U251 CNS) of the same compound?
Its TGI is 10.8 µM.

What about the GI50 (PC-3 prostate) of the same compound?
Its GI50 is 3.39 µM.

And the TGI (PC-3 prostate)?
The TGI was over 23.5 µM.

And the GI50 (OVCAR-8 ovarian)?
The GI50 was 2.9 µM.

And the TGI (OVCAR-8 ovarian)?
Its TGI is over 23.5 µM.

What about the GI50 (SF-295 CNS) of the same compound?
The GI50 was 3.49 µM.

What about the TGI (SF-295 CNS) of the same compound?
The TGI was 8.88 µM.

And the GI50 (UACC-257 melanoma)?
Its GI50 is 4.91 µM.

And the TGI (UACC-257 melanoma)?
The TGI was over 23.5 µM.

And the GI50 (RPMI-8226 leukemia)?
Its GI50 is 1.96 µM.

What about the TGI (RPMI-8226 leukemia) of the same compound?
The TGI was over 23.5 µM.

And the GI50 (TK-10 renal)?
Its GI50 is 0.679 µM.

And the TGI (TK-10 renal)?
Its TGI is over 23.5 µM.

What about the GI50 (A549 NSCLC) of the same compound?
The GI50 was 5.96 µM.

What about the TGI (A549 NSCLC) of the same compound?
The TGI was over 23.5 µM.

And the GI50 (A498 renal)?
Its GI50 is 0.493 µM.

And the TGI (A498 renal)?
Its TGI is 5.68 µM.

And the GI50 (HL-60(TB) leukemia)?
Its GI50 is 3.53 µM.

And the TGI (HL-60(TB) leukemia)?
Its TGI is over 23.5 µM.

What about the GI50 (NCI/ADR-RES ovarian) of the same compound?
The GI50 was 4.27 µM.

And the TGI (NCI/ADR-RES ovarian)?
The TGI was 17.1 µM.

And the GI50 (NCI-H522 lung)?
Its GI50 is 3.67 µM.

And the TGI (NCI-H522 lung)?
The TGI was 15.6 µM.

What about the GI50 (SNB-19 CNS) of the same compound?
Its GI50 is 4.81 µM.

And the TGI (SNB-19 CNS)?
Its TGI is 22 µM.

What about the GI50 (786-0 renal) of the same compound?
The GI50 was 3.8 µM.

What about the TGI (786-0 renal) of the same compound?
Its TGI is over 23.5 µM.

And the GI50 (M14 melanoma)?
Its GI50 is 5.32 µM.

What about the TGI (M14 melanoma) of the same compound?
Its TGI is over 23.5 µM.

What about the GI50 (SK-MEL-2 melanoma) of the same compound?
Its GI50 is 3.64 µM.

And the TGI (SK-MEL-2 melanoma)?
The TGI was 14.6 µM.

What about the GI50 (MDA-MB-231 breast) of the same compound?
Its GI50 is 2.48 µM.

What about the TGI (MDA-MB-231 breast) of the same compound?
Its TGI is 14.9 µM.

And the GI50 (MCF7 breast)?
The GI50 was 7.19 µM.

And the TGI (MCF7 breast)?
The TGI was over 23.5 µM.

And the GI50 (MOLT-4 leukemia)?
The GI50 was 1.3 µM.

What about the TGI (MOLT-4 leukemia) of the same compound?
The TGI was over 23.5 µM.

What about the GI50 (SF-268 CNS) of the same compound?
Its GI50 is 5.58 µM.

What about the TGI (SF-268 CNS) of the same compound?
The TGI was 17.8 µM.

And the GI50 (UO-31 renal)?
The GI50 was 3.72 µM.

What about the TGI (UO-31 renal) of the same compound?
Its TGI is 14 µM.

What about the GI50 (NCI-H23 lung) of the same compound?
The GI50 was 4.56 µM.

And the TGI (NCI-H23 lung)?
The TGI was over 23.5 µM.

What about the GI50 (IGROV1 ovarian) of the same compound?
The GI50 was 3.23 µM.

And the TGI (IGROV1 ovarian)?
Its TGI is 9.98 µM.

And the GI50 (HT29 colon)?
Its GI50 is 2.72 µM.

What about the TGI (HT29 colon) of the same compound?
The TGI was over 23.5 µM.

What about the GI50 (SNB-75 CNS) of the same compound?
Its GI50 is 1.33 µM.

What about the TGI (SNB-75 CNS) of the same compound?
The TGI was over 23.5 µM.

And the GI50 (LOX IMVI melanoma)?
Its GI50 is 2.52 µM.

What about the TGI (LOX IMVI melanoma) of the same compound?
The TGI was 5.79 µM.

And the GI50 (HOP-92 NSCLC)?
Its GI50 is 0.695 µM.

And the TGI (HOP-92 NSCLC)?
Its TGI is 4.26 µM.

And the GI50 (NCI-H226 lung)?
Its GI50 is 5.58 µM.

And the TGI (NCI-H226 lung)?
The TGI was over 23.5 µM.

What about the GI50 (DU-145 prostate) of the same compound?
Its GI50 is 5.26 µM.

What about the TGI (DU-145 prostate) of the same compound?
The TGI was over 23.5 µM.

And the GI50 (HCC-2998 colon)?
Its GI50 is 4.71 µM.

What about the TGI (HCC-2998 colon) of the same compound?
The TGI was 13.5 µM.

What about the GI50 (SF-539 CNS) of the same compound?
Its GI50 is 5.63 µM.

What about the TGI (SF-539 CNS) of the same compound?
The TGI was over 23.5 µM.

And the GI50 (CAKI-1 renal)?
Its GI50 is 5.6 µM.

And the TGI (CAKI-1 renal)?
Its TGI is over 23.5 µM.

What about the GI50 (T-47D breast) of the same compound?
The GI50 was 3.73 µM.

And the TGI (T-47D breast)?
Its TGI is over 23.5 µM.

And the GI50 (HCT-116 colon)?
Its GI50 is 0.7 µM.

And the TGI (HCT-116 colon)?
The TGI was over 23.5 µM.

What about the GI50 (UACC-62 melanoma) of the same compound?
The GI50 was 1.65 µM.

What about the TGI (UACC-62 melanoma) of the same compound?
Its TGI is 5.61 µM.

What about the GI50 (OVCAR-3 ovarian) of the same compound?
Its GI50 is 2.38 µM.

What about the TGI (OVCAR-3 ovarian) of the same compound?
Its TGI is 5.97 µM.

And the GI50 (OVCAR-4 ovarian)?
Its GI50 is 11.1 µM.

What about the TGI (OVCAR-4 ovarian) of the same compound?
The TGI was over 23.5 µM.

What about the GI50 (COLO 205 colon) of the same compound?
Its GI50 is 3.5 µM.

What about the TGI (COLO 205 colon) of the same compound?
The TGI was 10.5 µM.

And the GI50 (MALME-3M melanoma)?
Its GI50 is 1.79 µM.

What about the TGI (MALME-3M melanoma) of the same compound?
Its TGI is 14.2 µM.

What about the GI50 (HOP-62 NSCLC) of the same compound?
The GI50 was 4.93 µM.

And the TGI (HOP-62 NSCLC)?
Its TGI is over 23.5 µM.

And the GI50 (ACHN renal)?
Its GI50 is 3.56 µM.

What about the TGI (ACHN renal) of the same compound?
Its TGI is 15.3 µM.

What about the GI50 (CCRF-CEM leukemia) of the same compound?
The GI50 was 2.93 µM.

And the TGI (CCRF-CEM leukemia)?
The TGI was over 23.5 µM.

And the GI50 (NCI-H460 lung)?
The GI50 was 2.57 µM.

And the TGI (NCI-H460 lung)?
The TGI was over 23.5 µM.

What about the GI50 (SK-MEL-5 melanoma) of the same compound?
Its GI50 is 3.46 µM.

And the TGI (SK-MEL-5 melanoma)?
Its TGI is 7.22 µM.

What about the GI50 (EKVX NSCLC) of the same compound?
The GI50 was 8.16 µM.

What about the TGI (EKVX NSCLC) of the same compound?
The TGI was over 23.5 µM.

And the GI50 (SK-MEL-28 melanoma)?
The GI50 was 3.29 µM.

And the TGI (SK-MEL-28 melanoma)?
The TGI was over 23.5 µM.

And the GI50 (SR leukemia)?
The GI50 was 1.01 µM.

And the TGI (SR leukemia)?
The TGI was over 23.5 µM.

What about the GI50 (HCT-15 colon) of the same compound?
The GI50 was 3.99 µM.

And the TGI (HCT-15 colon)?
The TGI was 10.5 µM.

And the GI50 (K-562 leukemia)?
Its GI50 is 1.26 µM.

And the TGI (K-562 leukemia)?
The TGI was over 23.5 µM.

What about the GI50 (MDA-MB-435) of the same compound?
Its GI50 is 4.45 µM.

What about the TGI (MDA-MB-435) of the same compound?
Its TGI is over 23.5 µM.

And the GI50 (SN12C renal)?
Its GI50 is 3.75 µM.

And the TGI (SN12C renal)?
Its TGI is over 23.5 µM.

What about the GI50 (OVCAR-5 ovarian) of the same compound?
The GI50 was 2.07 µM.

And the TGI (OVCAR-5 ovarian)?
Its TGI is 13.6 µM.

And the GI50 (SK-OV-3 ovarian)?
The GI50 was 3.51 µM.

What about the TGI (SK-OV-3 ovarian) of the same compound?
The TGI was 17.6 µM.
